The results in this text go back to patent US20250011330A1, “Imidazo[1,2- a]pyrazine and Imidazo[1,2- a]pyridine Based Tyrosyl-DNA Phosphodiesterase I (TDP1) Inhibitors” (The USA, As Represented by the Secretary, Department of …, priority 2021, published 2025).

Like-named read-outs stand apart in the source and are kept apart here. Where only a bound is given, the exact number is not on record here.

One assay deals with TDP1 (Homo sapiens (Human), UniProt Q9NUW8). The assay is described as follows: TDP1 gel-based in vitro fluorescence assay. It is filed as biochemical. As for the experimental part:
(§1) (TDP assay buffer: 50 mM Tris HCl, pH 7.5, 80 mM KCl, 2 mM EDTA, 1 mM DTT, 40 μg/ml BSA and 0.01% Tween-20. TDP1 (20 mg/mL in 25 mM Tris-HCl pH 7.2, 150 mM NaCl, 2 mM tris(2-carboxyethyl)phosphine) with 2 mL of well solution composed of 0.1 M MOPS/HEPES pH 7.5, 10% (w/v) PEG 8000, 20% (v/v) ethylene glycol, 0.03 M sodium fluoride, 0.03 M sodium bromide, 0.03 M sodium iodide, 0.03 M sodium bromide and sealed over […] well solution. AF647 labelling buffer: Tris-HCl (pH 7.2, 25 mM), NaCl (150 mM), and tris(2-carboxyethyl)phosphine hydrochloride (TCEP, 2 mM).)
(§2) (DNA only: Buffer+DMSO. DMSO only: Enzyme+DMSO. Drug: Enzyme+Drug, 25° C., 10 min+DNA, reaction at 25° C., 15 min.)
Gel images were scanned using a Typhoon FLA 9500 scanner (GE Healthcare) and densitometric analyses were performed using the ImageQuant software (GE Healthcare). The IC50 of TDP1 inhibitors was calculated by comparing the percentage of cleavage product (5′Cy5-[…]-p-3′) to DMSO control.

Assay [1] has as its system human colon cancer cell line HCT116. The assay is described as follows: Synergistic effect with camptothecin (CPT) based on cell viability. The settings on record: for synergy with camptothecin: list in description; for Synergy Score: with camptothecin (CPT), HCT116, 72 h, SynergyFinder 2.0. How it is done: The synergistic effects of the TDP1 inhibitors with CPT were tested in human colon cancer cell line HCT116 based on cell viability (Table 3, FIGS. 2-5). Cells were first seeded in a 384-well black-clear plate until 30% confluency and then incubated with a serial dilution of CPT at the range of 0-100 nM in the present or the absence of TDP1 inhibitors for 72 h at 37° C. Viable cell numbers were counted from the brightfield images taken by Biotek Cytation 5 (FIGS. 2-3). Fractional affect (Fa) and combination index (Ci) were analyzed with CompuSyn software. Synergistic scores of each TDP1 inhibitors were calculated and collected based on the data analysis from SynergyFinder (FIG. 4). […]

The next assay deals with TDP2 (Homo sapiens (Human), UniProt O95551). The assay is described as follows: gel-based TDP2 fluorescence assay in vitro. It is filed as biochemical. Conditions: read-out: TDP2 IC50. How it is done: as §1, §2
The mark [2] stands for this setting: Table 1, imidazo[1,2-a]pyridin-3-amines, read-out: IC50.
Setting [3] is: Table 7, HPLC-purified oxime leads.
The mark [4] stands for this setting: Table 7, ratio of IC50 TDP2 to TDP1.
Where [5] appears, read: Table 7, HPLC-purified oxime leads, read-out: TDP1 IC50.
Where [6] appears, read: Table 9, fluorosulfates and sulfonyl fluorides.
[7] abbreviates: Table 9, fluorosulfates and sulfonyl fluorides, read-out: TDP1 IC50.
Where [8] appears, read: Table 10, PROTACs, read-out: TDP1 IC50.

Sequence of TDP1 (Q9NUW8 whole entry): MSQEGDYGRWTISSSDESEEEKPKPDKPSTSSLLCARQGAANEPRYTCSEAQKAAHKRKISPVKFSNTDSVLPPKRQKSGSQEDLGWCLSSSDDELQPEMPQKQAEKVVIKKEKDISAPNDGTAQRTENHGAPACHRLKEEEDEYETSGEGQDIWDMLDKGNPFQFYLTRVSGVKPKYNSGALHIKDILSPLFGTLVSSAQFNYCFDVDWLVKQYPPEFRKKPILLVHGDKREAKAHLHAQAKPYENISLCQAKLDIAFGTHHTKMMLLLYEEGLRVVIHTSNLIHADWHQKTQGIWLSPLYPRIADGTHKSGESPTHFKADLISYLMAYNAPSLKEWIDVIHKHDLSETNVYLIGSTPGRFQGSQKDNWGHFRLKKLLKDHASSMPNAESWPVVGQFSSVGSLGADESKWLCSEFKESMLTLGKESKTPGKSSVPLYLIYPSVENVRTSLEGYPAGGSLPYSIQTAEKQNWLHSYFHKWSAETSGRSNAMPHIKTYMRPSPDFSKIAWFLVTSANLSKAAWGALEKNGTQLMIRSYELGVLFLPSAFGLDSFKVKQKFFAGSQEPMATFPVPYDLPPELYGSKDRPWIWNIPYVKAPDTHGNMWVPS
Sequence of TDP2 (O95551 whole entry, species assumed): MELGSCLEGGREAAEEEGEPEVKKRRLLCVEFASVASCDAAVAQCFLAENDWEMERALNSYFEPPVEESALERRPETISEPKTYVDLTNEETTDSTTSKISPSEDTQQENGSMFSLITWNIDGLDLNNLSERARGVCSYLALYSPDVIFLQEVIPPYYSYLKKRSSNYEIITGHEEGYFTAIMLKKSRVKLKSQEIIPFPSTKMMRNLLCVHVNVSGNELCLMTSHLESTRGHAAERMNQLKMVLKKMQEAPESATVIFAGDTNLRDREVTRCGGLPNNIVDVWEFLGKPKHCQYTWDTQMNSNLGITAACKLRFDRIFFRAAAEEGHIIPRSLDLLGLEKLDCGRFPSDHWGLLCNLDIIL

The IC50 is the concentration needed to halve the response being measured. For `CS(=O)(=O)c1ccc2nc(-c3ccccc3)c(Nc3ccc([N+](=O)[O-])cc3)n2c1` [Compound 6u, 6-(Methylsulfonyl)-N-(4-nitrophenyl)-2-phenylimidazo[1,2-a]pyridin-3-amine], on TDP1 (setting [2]), the half-maximal inhibitory concentration (IC50) came out at 16.1 µM. The synergy with camptothecin entry in assay [1] is reported as “exhibit synergy with camptothecin”.

Turning to `O=C(O)c1ccc(Nc2c(-c3ccccc3)nc3cnccn23)cc1` [Compound 7b, 4-((2-Phenylimidazo[1,2-a]pyrazin-3-yl)amino)benzoic acid], the concentration for half-maximal inhibition (IC50) at TDP2 (Table 3) is greater than 100 µM. In assay [1], the “Synergy Score” value was determined as 3.

For the compound `O=C(O)c1ccc(Nc2c(-c3ccccc3)nc3ccccn23)cc1` [Compound 8a, 4-((2-Phenylimidazo[1,2-a]pyridin-3-yl)amino)benzoic acid], the half-maximal inhibitory concentration (IC50) at TDP2 (Table 3) was greater than 100 µM. Moreover, the “Synergy Score” value in assay [1] is reported as −1.3.

For the compound `O=C(O)c1ccc(Nc2c(-c3ccccc3)nc3ccc(C(=O)O)cn23)cc1` [Compound 8m, 3-((4-Carboxyphenyl)amino)-2-phenylimidazo[1,2-a]pyridine-6-carboxylic acid], on TDP1 (setting [2]), the IC50 stood at 0.9 µM. Moreover, in assay [1], the synergy with camptothecin result was “exhibit synergy with camptothecin”.

Consider `O=C(O)c1ccc(Nc2c(-c3ccccc3)nc3ccc(Br)cn23)cc1` [Compound 8o, 4-((6-Bromo-2-phenylimidazo[1,2-a]pyridin-3-yl)amino)benzoic acid], for which the half-maximal inhibitory concentration (IC50) on TDP1 (setting [2]) is 1.6 µM. In assay [1], the synergy with camptothecin entry is recorded as “exhibit synergy with camptothecin”.

Turning to `CS(=O)(=O)c1ccc2nc(-c3ccccc3)c(Nc3ccc(C(=O)O)cc3)n2c1` [Compound 8q, 4-((6-(Methylsulfonyl)-2-phenylimidazo[1,2-a]pyridin-3-yl)amino)benzoic acid], the “TDP1 Selectivity” value at TDP1 (ratio of IC50 values of TDP1/TDP2) came to 26. In addition, the “Synergy Score” value in assay [1] came out at 9.5.

For `O=C(O)c1ccc(Nc2c(-c3ccccc3)nc3cc(C(=O)O)ccn23)cc1` [Compound 8s, 3-((4-Carboxyphenyl)amino)-2-phenylimidazo[1,2-a]pyridine-7-carboxylic acid], the IC50 on TDP2 (Table 3) is greater than 100 µM. In assay [1], the synergy with camptothecin entry is given as “exhibit synergy with camptothecin” and the “Synergy Score” value is given as 20.7.

In the case of `O=C(O)c1ccc(Nc2c(-c3ccccc3O)nc3cnccn23)cc1` [Compound M7], in assay [1], the synergy with camptothecin result is recorded as “exhibit synergy with camptothecin” and the “Synergy Score” value amounted to 15.6.

Take `O=C(O)c1ccc(Nc2c(-c3ccc(CO/N=C/c4ccc(-c5ccccc5)cc4)cc3)nc3cc(-c4ccccc4)ccn23)cc1` [XZ705, (E)-4-((2-(4-(((([1,1′-Biphenyl]-4-ylmethylene)amino)oxy)methyl)phenyl)-7-phenylimidazo[1,2-a]pyridin-3-yl)amino)benzoic acid]: on TDP2 (setting [3]), the IC50 is greater than 100 µM. In addition, the “FC (fold change)” value at TDP1 (setting [4]) is given as greater than 2.

With `Cc1cncc(Oc2ccc(/C=N/OCc3ccc4nc(-c5ccccc5)c(Nc5ccc(C(=O)O)cc5)n4c3)cc2)n1` [XZ707, (E)-4-((6-((((4-((6-methylpyrazin-2-yl)oxy)benzylidene)amino)oxy)methyl)-2-phenylimidazo[1,2-a]pyridin-3-yl)amino)benzoic acid], the 50% inhibitory concentration (IC50) on TDP2 (setting [3]) and at TDP1 (setting [5]) was greater than 100 µM throughout.

As to `O=C(O)c1ccc(Nc2c(-c3ccc(CO/N=C\c4ccc(-c5cnccn5)cc4)cc3)nc3cc(-c4ccccc4)ccn23)cc1` [XZ709, (Z)-4-((7-Phenyl-2-(4-((((4-(pyrazin-2-yl)benzylidene)amino)oxy)methyl)phenyl)imidazo[1,2-a]pyridin-3-yl)amino)benzoic acid], the half-maximal inhibitory concentration (IC50) at TDP2 (setting [3]) was greater than 100 µM. In addition, the “FC (fold change)” value on TDP1 (setting [4]) is greater than 2.

Regarding `O=C(O)c1ccc(Nc2c(-c3ccc(CO/N=C\c4ccc(N5CCCC5=O)cc4)cc3)nc3cc(-c4ccccc4)ccn23)cc1` [XZ710, (Z)-4-((2-(4-((((4-(2-Oxopyrrolidin-1-yl)benzylidene)amino)oxy)methyl)phenyl)-7-phenylimidazo[1,2-a]pyridin-3-yl)amino)benzoic acid], at TDP2 (setting [3]), the IC50 was greater than 100 µM. The “FC (fold change)” value on TDP1 (setting [4]) is recorded as greater than 13.

As for `Cc1cncc(Oc2ccc(/C=N\OCc3ccc(-c4nc5cc(-c6ccccc6)ccn5c4Nc4ccc(C(=O)O)cc4)cc3)cc2)n1` [XZ711, (Z)-4-((2-(4-((((4-((6-methylpyrazin-2-yl)oxy)benzylidene)amino)oxy)methyl)phenyl)-7-phenylimidazo[1,2-a]pyridin-3-yl)amino)benzoic acid], the IC50 at TDP2 (setting [3]) was greater than 100 µM. Further, the “FC (fold change)” value at TDP1 (setting [4]) is on record as greater than 2.

With `O=C(O)c1ccc(Nc2c(-c3ccc(CO/N=C\c4ccc(-c5ccccc5)cc4)cc3)nc3cc(-c4ccccc4)ccn23)cc1` [XZ712, (Z)-4-((2-(4-(((([1,1′-Biphenyl]-4-ylmethylene)amino)oxy)methyl)phenyl)-7-phenylimidazo[1,2-a]pyridin-3-yl)amino)benzoic acid], the IC50 on TDP2 (setting [3]) is greater than 100 µM. Also, the “FC (fold change)” value at TDP1 (setting [4]) was greater than 2.

Consider `N#Cc1ccc(-c2ccc(/C=N\OCc3ccc4nc(-c5ccccc5)c(Nc5ccc(C(=O)O)cc5)n4c3)cc2)nc1` [XZ717, (Z)-4-((6-((((4-(5-Cyanopyridin-2-yl)benzylidene)amino)oxy)methyl)-2-phenylimidazo[1,2-a]pyridin-3-yl)amino)benzoic acid], for which the half-maximal inhibitory concentration (IC50) was greater than 100 µM at TDP2 (setting [3]) and 50.3 ± 10.7 µM on TDP1 (setting [5]). In addition, on TDP1 (setting [4]), the “FC (fold change)” value is given as greater than 2.

With `N#Cc1ccc(-c2ccc(Cn3cc(COc4ccc(-c5nc6ccccn6c5Nc5ccc(C(=O)O)cc5)cc4)nn3)cc2)nc1` [XZ721, 4-((2-(4-((1-(4-(5-Cyanopyridin-2-yl)benzyl)-1H-1,2,3-triazol-4-yl)methoxy)phenyl)imidazo[1,2-a]pyridin-3-yl)amino)benzoic acid], the half-inhibitory concentration (IC50) at TDP2 (Table 8, lead compounds with different linkers) is greater than 100 µM; on TDP1 (Table 8, lead compounds with different linkers, read-out: TDP1 IC50) it was 60 ± 17 µM. The “FC (fold change)” value at TDP1 (Table 8, ratio of IC50 TDP2 to TDP1) was greater than 1.

On to `O=C(O)c1ccc(Nc2c(-c3ccc(OS(=O)(=O)F)cc3)nc3cc(-c4ccccc4)ccn23)cc1` [XZ728, 4-((2-(4-((Fluorosulfonyl)oxy)phenyl)-7-phenylimidazo[1,2-a]pyridin-3-yl)amino)benzoic acid], for which the IC50 on TDP2 (setting [6]) and at TDP1 (setting [7]) was greater than 100 µM each time.

Take `O=C(O)c1ccc(Nc2c(-c3cccc(OS(=O)(=O)F)c3)nc3cc(-c4ccccc4)ccn23)cc1` [XZ729, 4-((2-(3-((Fluorosulfonyl)oxy)phenyl)-7-phenylimidazo[1,2-a]pyridin-3-yl)amino)benzoic acid]: the IC50 on TDP2 (setting [6]) and at TDP1 (setting [7]) was greater than 100 µM in each case.

For `O=C1CCC(N2C(=O)c3cccc(NCCCCCCNCc4ccc(-c5nc6cc(-c7ccccc7)ccn6c5Nc5ccc(C(=O)O)cc5)cc4)c3C2=O)C(=O)N1` (stereo not drawn) [XZ742, 4-((2-(4-(((6-((2-(2,6-Dioxopiperidin-3-yl)-1,3-dioxoisoindolin-4-yl)amino)hexyl)amino)methyl)phenyl)-7-phenylimidazo[1,2-a]pyridin-3-yl)amino)benzoic acid], the IC50 on TDP2 (Table 10, PROTACs) is greater than 100 µM; on TDP1 (setting [8]) it was greater than 100 µM.

With `O=C1CCC(N2C(=O)c3cccc(OCCOCCOCc4cn(Cc5ccc(-c6nc7cc(-c8ccccc8)ccn7c6Nc6ccc(C(=O)O)cc6)cc5)nn4)c3C2=O)C(=O)N1` (stereo not drawn) [XZ743, 4-((2-(4-((4-((2-(2-((2-(2,6-Dioxopiperidin-3-yl)-1,3-dioxoisoindolin-4-yl)oxy)ethoxy)ethoxy)methyl)-1H-1,2,3-triazol-1-yl)methyl)phenyl)-7-phenylimidazo[1,2-a]pyridin-3-yl)amino)benzoic acid], the IC50 is greater than 100 µM on TDP2 (Table 10, PROTACs) and greater than 100 µM at TDP1 (setting [8]).

As for `O=C1CCC(N2C(=O)c3cccc(NCCc4cn(Cc5ccc(-c6nc7cc(-c8ccccc8)ccn7c6Nc6ccc(C(=O)O)cc6)cc5)nn4)c3C2=O)C(=O)N1` (stereo not drawn) [XZ749, 4-((2-(4-((4-(2-((2-(2,6-Dioxopiperidin-3-yl)-1,3-dioxoisoindolin-4-yl)amino)ethyl)-1H-1,2,3-triazol-1-yl)methyl)phenyl)-7-phenylimidazo[1,2-a]pyridin-3-V)amino)benzoic acid], the 50% inhibitory concentration (IC50) is 16.8 ± 0.3 µM on TDP2 (Table 10, PROTACs) and 12.3 ± 1.5 µM on TDP1 (setting [8]).
